Laboratory results as given in US9510589B2, “Use and agrochemical composition of carboxylic acid dibutylamides” (priority 2011, dated 2016).

Experiments:
[1] = tested on: enzymatically isolated cuticles of apple tree leaves; experiment: Penetration test, epoxiconazole (Example 11); format: in vitro ADME, apple trees of the Golden Delicious variety; details: without N,N-dibutylcarboxamide, 0.3 g/l epoxiconazole in acetone/water, 20° C., 60% relative air humidity
Method: (§1) In this test, the penetration of active ingredients though enzymatically isolated cuticles of apple tree leaves was measured. Leaves which had been cut off in the fully developed state from apple trees of the Golden Delicious variety were used.
(§2) Thereafter, only the cuticles of the upper leaf sides which were free of stomata and hairs were used in the further procedure. They were repeatedly washed alternately with water and a buffer solution of pH 7. The clean cuticles obtained were finally applied to Teflon sheets and smoothed and dried with a gentle air stream.
(§3) In the next step, the cuticular membranes thus obtained were placed into stainless steel diffusion cells (=transport chambers) for membrane transport studies. For this purpose, the cuticles were positioned using tweezers centrally onto the edges of the diffusion cells which had been smeared with silicone grease and sealed with a ring which had likewise been greased. The arrangement was selected such that the morphological outer side of the cuticles was directed outward, i.e. toward the air, while the original inner side faced the interior of the diffusion cell. […]
(§4) To determine the penetration, 10 μl in each case of a spray liquor of the composition specified in the examples were applied to the outer side of a cuticle. […] The active ingredient penetration was measured by means of HPLC or radiolabeled active ingredient.

[2] = tested on: enzymatically isolated cuticles of apple tree leaves; experiment: Penetration test, azoxystrobin (Example 10); format: in vitro ADME, apple trees of the Golden Delicious variety; details: without N,N-dibutylcarboxamide, 0.3 g/l azoxystrobin in acetone/water, 20° C., 60% relative air humidity
Method: as §1, §2, §3, §4

[3] = tested on: enzymatically isolated cuticles of apple tree leaves; experiment: Penetration test, bromoxynil, dimethyl vs dibutyl amides (Example 6); format: in vitro ADME, apple trees of the Golden Delicious variety; details: no N,N-dialkylcarboxamide, 0.5 g/l castor oil ethoxylate emulsifier only, 1.5 g/l bromoxynil in acetone/water, 20° C., 60% relative air humidity
Method: as §1, §2, §3, §4

[4] = tested on: isolated apple leaf cuticles; experiment: Penetration test, fluopyram EC (Example 21); format: in vitro ADME, apple trees of the Golden Delicious variety; details: no carboxamide, 0.5 g/l fluopyram, 0.5 g/l emulsifier, 2% by weight solvent, 25° C., 60% relative air humidity
Method: The active ingredient fluopyram was made up as an EC formulation in the laboratory: fluopyram is dissolved in a preliminary mixture of solvent and emulsifier (dimethylacetamide+Tanemul PS16) and diluted with water to give the ready-to-use test solution. The test solution contains 0.5 g/l active ingredient, 0.5 g/l emulsifier and 2% by weight of solvent.

[5] = tested on: enzymatically isolated cuticles of apple tree leaves; experiment: Penetration test, isopyrazam (Example 13); format: in vitro ADME, apple trees of the Golden Delicious variety; details: without N,N-dibutylcarboxamide, 0.3 g/l isopyrazam in acetone/water, 20° C., 60% relative air humidity
Method: as §1, §2, §3, §4

[6] = tested on: enzymatically isolated cuticles of apple tree leaves; experiment: Penetration test, kresoxim-methyl (Example 9); details: without N,N-dibutylcarboxamide, 0.3 g/l kresoxim-methyl in acetone/water, 20° C., 60% relative air humidity
Method: as §1, §2, §3, §4

[7] = tested on: enzymatically isolated cuticles of apple tree leaves; experiment: Penetration test, propiconazole (Example 12); format: in vitro ADME, apple trees of the Golden Delicious variety; details: without N,N-dibutylcarboxamide, 0.3 g/l propiconazole in acetone/water, 20° C., 60% relative air humidity
Method: as §1, §2, §3, §4

[8] = tested on: enzymatically isolated cuticles of apple tree leaves; experiment: Penetration test, prothioconazole in acetone/water (Example 15); format: in vitro ADME, apple trees of the Golden Delicious variety; details: without N,N-dibutylcarboxamide, 0.3 g/l prothioconazole in acetone/water, 25° C., 60% relative air humidity
Method: as §1, §2, §3, §4

[9] = tested on: enzymatically isolated cuticles of apple tree leaves; experiment: Penetration test, prothioconazole with dimethyl amide plus dibutyl amides (Example 17); format: in vitro ADME, apple trees of the Golden Delicious variety; details: no N,N-dibutylcarboxamide, 0.8 g/l prothioconazole in acetone/water with 1.5 g/l N,N-dimethyl-C8-C10-carboxamide and 0.4 g/l tristyrylphenol ethoxylate, n = 21, 20° C., 60% relative air humidity
Method: as §1, §2, §3, §4

[10] = tested on: enzymatically isolated cuticles of apple tree leaves; experiment: Penetration test, spirotetramat in acetone/water (Example 7); format: in vitro ADME, apple trees of the Golden Delicious variety; details: without N,N-dibutylcarboxamide, 0.3 g/l spirotetramat in acetone/water, 20° C., 60% relative air humidity
Method: as §1, §2, §3, §4

Fc1ccc([C@]2(Cn3cncn3)O[C@H]2c2ccccc2Cl)cc1 (racemic) [epoxiconazole] was tested. Which “Mean penetration of epoxiconazole in % 3 h” value ([1]; 3 h) did it give?
Its value is 1%.

And the “Mean penetration of epoxiconazole in % 24 h” value ([1]; 24 h)?
Its value is 2%.

How did the “Mean penetration of azoxystrobin in % 3 h” value ([2]; 3 h) turn out when CO/C=C(/C(=O)OC)c1ccccc1Oc1cc(Oc2ccccc2C#N)ncn1 [azoxystrobin] was run?
Its value is under 1%.

And the “Mean penetration of azoxystrobin in % 24 h” value ([2]; 24 h)?
Its value is 1%.

N#Cc1cc(Br)c(O)c(Br)c1 [bromoxynil] was tested. Which “Mean penetration of bromoxynil in % 5 h” value ([3]; 5 h) did it give?
Its value is 4%.

What about the “Mean penetration of bromoxynil in % 24 h” value ([3]; 24 h) of the same compound?
Its value is 20%.

Which results are given for O=C(NCCc1ncc(C(F)(F)F)cc1Cl)c1ccccc1C(F)(F)F [fluopyram]?
Mean penetration of fluopyram in % 6 h ([4]; 6 h): 20%; Mean penetration of fluopyram in % 24 h ([4]; 24 h): 53%

Which “Mean penetration of isopyrazam in % 3 h” value ([5]; 3 h) does the source give for CC(C)C1C2CCC1c1c(NC(=O)c3cn(C)nc3C(F)F)cccc12 (centres unmarked) [isopyrazam] here?
The value was 1%.

And the “Mean penetration of isopyrazam in % 24 h” value ([5]; 24 h)?
Its value is 2%.

How did the “Mean penetration of kresoxim-methyl in % 3 h” value ([6]; 3 h) turn out when CO/N=C(/C(=O)OC)c1ccccc1COc1ccccc1C [kresoxim-methyl] was run?
Its value is 1%.

And the “Mean penetration of kresoxim-methyl in % 24 h” value ([6]; 24 h)?
Its value is 3%.

What does the source list for CCCC1COC(Cn2cncn2)(c2ccc(Cl)cc2Cl)O1 (centres unmarked) [propiconazole]?
Mean penetration of propiconazole in % 3 h ([7]; 3 h): 4%; Mean penetration of propiconazole in % 24 h ([7]; 24 h): 44%

For OC(Cc1ccccc1Cl)(Cn1nc[nH]c1=S)C1(Cl)CC1 (centres unmarked) [prothioconazole], which “Mean penetration of prothioconazole in % 3 h” value ([8]; 3 h) is on record?
The value was 1%.

What about the “Mean penetration of prothioconazole in % 24 h” value ([8]; 24 h) of the same compound?
Its value is 2%.

And the “Mean penetration of prothioconazole in % 3 h” value ([9]; 3 h)?
Its value is 1.3 (n = 21) %.

And the “Mean penetration of prothioconazole in % 24 h” value ([9]; 24 h)?
The value was 3.7 (n = 21) %.

How did the “Mean penetration of spirotetramat in % 3 h” value ([10]; 3 h) turn out when CCOC(=O)OC1=C(c2cc(C)ccc2C)C(=O)N[C@]12CC[C@@H](OC)CC2 [spirotetramat] was run?
Its value is 0%.

And the “Mean penetration of spirotetramat in % 24 h” value ([10]; 24 h)?
Its value is 1%.
